# From ChEMBL document CHEMBL1926629, “Design, synthesis and insight into the structure-activity relationship of 1,3-disubstituted indazoles as novel HIF-1 inhibitors” (Bioorg Med Chem Lett, 2011)
# Target: not listed separately
# Assay: Inhibition of hypoxia-induced HIF-1 transcriptional activity by luciferase reporter assay
# Conditions: not given
row,IC50,SMILES
1,5 µM,OCc1ccc(-c2[nH]nc3ccccc23)o1
2,1.3 µM,O=S(=O)(c1ccccc1)n1nc(-c2ccc(CO)o2)c2ccccc21
3,> 30 µM,OCc1coc(-c2nn(Cc3ccccc3)c3ccccc23)n1
4,1.2 µM,OCc1ccc(-c2nn(Cc3ccccc3)c3ccccc23)o1
5,13.4 µM,CC(=O)NCc1ccc(-c2nn(C)c3ccccc23)o1
6,1.9 µM,Cn1nc(-c2ccc(CN3CCOCC3)o2)c2ccccc21
7,> 30 µM,Cn1nc(-c2nc(CO)co2)c2ccccc21
8,8.9 µM,Cn1nc(-c2ccc(CO)o2)c2ccccc21
9,11.9 µM,NC(=O)c1ccc(-c2nn(Cc3ccccc3)c3ccccc23)o1
10,> 30 µM,OCc1cnc(-c2nn(Cc3ccccc3)c3ccccc23)s1
11,8.5 µM,CN(C)Cc1ccc(-c2nn(C)c3ccccc23)o1
12,> 30 µM,OCc1cnc(-c2nn(Cc3ccccc3)c3ccccc23)o1
13,> 30 µM,Cn1nc(-c2ncc(CO)s2)c2ccccc21
14,7.7 µM,CNCc1ccc(-c2nn(C)c3ccccc23)o1
15,> 30 µM,Cn1nc(-c2ncc(CO)o2)c2ccccc21
16,2 µM,Cn1nc(-c2ccc(CN3CCCCC3)o2)c2ccccc21
17,> 30 µM,Cn1nc(-c2cc(CO)no2)c2ccccc21
18,0.9 µM,COC(=O)c1ccc(-c2nn(Cc3ccccc3)c3ccccc23)o1
19,0.89 µM,CC(C)(C)C(=O)OCc1ccc(-c2nn(Cc3ccccc3)c3ccccc23)o1
20,0.74 µM,CC(C)C(=O)OCc1ccc(-c2nn(Cc3ccccc3)c3ccccc23)o1
21,> 30 µM,Cn1nc(-c2ccc(CN)o2)c2ccccc21
22,> 30 µM,Cn1nc(-c2ccc(CN=[N+]=[N-])o2)c2ccccc21
23,> 30 µM,OCC1CN=C(c2nn(Cc3ccccc3)c3ccccc23)O1 (stereo not drawn)
24,16.9 µM,CC(=O)OCc1ccc(-c2nn(C)c3ccccc23)o1
25,23.9 µM,OCc1cc(-c2nn(Cc3ccccc3)c3ccccc23)on1
26,2.3 µM,CC(=O)OCc1ccc(-c2nn(Cc3ccccc3)c3ccccc23)o1
27,> 30 µM,[N-]=[N+]=NCc1ccc(-c2nn(Cc3ccccc3)c3ccccc23)o1

# Target: Hypoxia-inducible factor 1-alpha (Homo sapiens) (UniProt Q16665)
# Sequence (Q16665 whole entry, looked up): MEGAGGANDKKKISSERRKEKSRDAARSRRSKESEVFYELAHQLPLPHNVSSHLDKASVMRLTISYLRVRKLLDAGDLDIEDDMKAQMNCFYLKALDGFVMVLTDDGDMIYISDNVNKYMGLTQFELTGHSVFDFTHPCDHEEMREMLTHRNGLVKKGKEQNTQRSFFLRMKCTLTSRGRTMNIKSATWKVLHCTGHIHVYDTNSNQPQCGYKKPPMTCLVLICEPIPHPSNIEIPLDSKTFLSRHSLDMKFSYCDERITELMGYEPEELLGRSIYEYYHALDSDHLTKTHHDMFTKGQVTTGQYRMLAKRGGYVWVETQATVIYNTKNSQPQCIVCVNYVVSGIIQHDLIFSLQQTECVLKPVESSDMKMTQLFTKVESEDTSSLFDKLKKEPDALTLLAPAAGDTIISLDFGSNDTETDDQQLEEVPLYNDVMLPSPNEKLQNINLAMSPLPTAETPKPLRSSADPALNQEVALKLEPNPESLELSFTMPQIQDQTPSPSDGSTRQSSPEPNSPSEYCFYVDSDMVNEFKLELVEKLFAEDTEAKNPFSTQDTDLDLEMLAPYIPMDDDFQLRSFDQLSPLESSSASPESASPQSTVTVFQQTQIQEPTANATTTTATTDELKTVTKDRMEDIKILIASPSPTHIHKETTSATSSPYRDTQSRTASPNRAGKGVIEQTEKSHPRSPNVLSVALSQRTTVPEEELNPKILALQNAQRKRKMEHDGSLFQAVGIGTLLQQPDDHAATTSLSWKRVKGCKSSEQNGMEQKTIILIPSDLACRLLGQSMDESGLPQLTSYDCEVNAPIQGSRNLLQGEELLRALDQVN
# Assay: Inhibition of hypoxia-induced HIF1alpha protein reduction in human Hep3B cells by Western blot analysis
# Format: cell-based
# Conditions: Hep 3B2
row,inhibition,SMILES
1,Dose-dependent effect,CC(C)C(=O)OCc1ccc(-c2nn(Cc3ccccc3)c3ccccc23)o1
